The values below are quoted from earlier work in patent US11065213B2, “Amantadine compositions and preparations thereof” (Adamas Pharma, LLC, priority 2017, dated 2021).

Read-outs that look alike come from different tables or passages of the source.

In this series the test system is LID in PD patients. Conditions: IR formulation.

With `NC12CC3CC(CC(C3)C1)C2` [amantadine], the “reduction in LID” value (200 mg/day) is recorded as “approximately 25%”. The “reduction of LID” value by setting is: (300 mg/day) around 40%; (300 to 400 mg/day) around 60%.
